Key:
furin protease [1] = biological target: T1, furin protease (Homo sapiens, UniProt P09958); assay: Secretion of anti-EGFR antibody by 293T/anti-EGFR cells with furin inhibitor; assay type: cell-based; settings: furin inhibitor added vs absent (FIG. 2A)
T1 construct: rich furin protease in Golgi can effectively cleave a furin cleavage site; endogenous in cells; host or cells: 293T/anti-EGFR (HEK-293 derived) cells
Text: (§1) (A) To detect the concentration of anti-EGFR antibody of 293T/anti-EGFR cell culture, Dec-RVKR-CMK was used as furin inhibitor. The Y axis represents concentration of the secreted anti-EGFR antibody, while the X axis represents cell groups. […] (B) To detect anti-EGFR Ab-RAKR-mB7 expression of 293T/anti-EGFR on cell membrane, FACS technology combined with FITC conjugated anti-human IgG antibody was used. The filled region represents 293T cells as control group; the solid line represents 293T/anti-EGFR cell without furin inhibitor; the dashed line represents 293T/anti-EGFR cell with furin inhibitor.
Take a humanized anti-EGFR antibody, for example; we transfected an anti-EGFR Ab-RAKR-mB7 gene into a human embryonic kidney cell with a Lentivirus vector to construct a 293T/anti-EGFR cell line. In the absence of a furin inhibitor (Dec-RVKR-CMK), said 293T/anti-EGFR can continuously secrete anti-EGFR antibody into extracellular matrix (see FIG. 2A).

furin protease [2] = biological target: T1, furin protease; assay: FACS detection of anti-EGFR Ab-RAKR-mB7 on 293T/anti-EGFR cell membrane with furin inhibitor; assay type: cell-based; settings: 293T/anti-EGFR cells, furin inhibitor added, FITC anti-human IgG, FACS (FIG. 2B)
Text: as §1
The gene was transfected into mammalian cells (human embryonic kidney cells, HEK-293). Under normal conditions, rich furin protease in Golgi can effectively cleave a furin cleavage site ([…]) between anti-EGFR antibody and mB7 to allow secretion of the anti-EGFR antibody into an extracellular matrix. When furin inhibitor (DEC-RVKR-CMK) was added, to inhibit the activity of the furin protease, the anti-EGFR Ab-RAKR-mB7 would not be cleaved by furin protease and would be stably anchored on the cell membrane surface. Then, FITC-conjugated anti-human antibody was used to label the anti-EGFR Ab-RAKR-mB7 on the cell membranes. By using FACS, the cells with high expression of anti-EGFR Ab-RAKR-mB7 on their cell membranes can be rapidly and high-throughput sorted. […]

furin protease [3] = biological target: T2, furin protease (Cricetulus griseus, UniProt A0A9J7CGZ7); assay: FACS detection of PCD-GB-RAKR-mB7 on LEC1/PCD-GB cell membrane with furin inhibitor; assay type: cell-based, Chinese Hamster; settings: LEC1/PCD-GB cells, furin inhibitor added, anti-myc antibody, FACS (FIG. 6B)
T2 construct: rich furin protease in Golgi can effectively cleave furin cleavage site; endogenous in cells; host or cells: LEC1/PCD-GB (CHO Lec1) cells
Text: (A) To detect the expression of PCD-GB recombinant protein in LEC1 and LEC1/PCD-GB cells, Western blot technique accompanied with mouse anti-myc antibody and goat anti-mouse IgG-HRP was used. (B) Furin inhibitor (Dec-RVKR-CMK) was used to inhibit the furin activity of LEC1 and LEC1/PCD-GB cells. Then, to detect the expression of PCD-GB-RAKR-mB7 on cell membrane, FACS technology accompanied with mouse anti-myc antibody and goat anti-mouse IgG-HRP was used. The filled region represents LEC1 cells as control group; solid line represents LEC1/PCD-GB cells without furin inhibitor; dashed line represents LEC1/PCD-GB cells with furin inhibitor. (C) The X axis represents the expression of PCD-GB-RAKR-mB7 on cell membrane (mean relative fluorescence intensity). The Y axis represents the production of PCD-GB stored in lysosomes. Each dot represents a single individual LEC1/PCD-GB cell.
Example 2 exemplifies a perforin-granzyme fusion protein (PCD-GB) which is expressed in lysosome. […] The gene was transfected into mammalian cells (Chinese Hamster Ovary cells, LEC1). Under normal conditions, rich furin protease in Golgi can effectively cleave furin cleavage site ([…]) between PCD-GB and mB7 so that PCD-GB would be stored in lysosome. […]

T1 sequence (P09958 108-794): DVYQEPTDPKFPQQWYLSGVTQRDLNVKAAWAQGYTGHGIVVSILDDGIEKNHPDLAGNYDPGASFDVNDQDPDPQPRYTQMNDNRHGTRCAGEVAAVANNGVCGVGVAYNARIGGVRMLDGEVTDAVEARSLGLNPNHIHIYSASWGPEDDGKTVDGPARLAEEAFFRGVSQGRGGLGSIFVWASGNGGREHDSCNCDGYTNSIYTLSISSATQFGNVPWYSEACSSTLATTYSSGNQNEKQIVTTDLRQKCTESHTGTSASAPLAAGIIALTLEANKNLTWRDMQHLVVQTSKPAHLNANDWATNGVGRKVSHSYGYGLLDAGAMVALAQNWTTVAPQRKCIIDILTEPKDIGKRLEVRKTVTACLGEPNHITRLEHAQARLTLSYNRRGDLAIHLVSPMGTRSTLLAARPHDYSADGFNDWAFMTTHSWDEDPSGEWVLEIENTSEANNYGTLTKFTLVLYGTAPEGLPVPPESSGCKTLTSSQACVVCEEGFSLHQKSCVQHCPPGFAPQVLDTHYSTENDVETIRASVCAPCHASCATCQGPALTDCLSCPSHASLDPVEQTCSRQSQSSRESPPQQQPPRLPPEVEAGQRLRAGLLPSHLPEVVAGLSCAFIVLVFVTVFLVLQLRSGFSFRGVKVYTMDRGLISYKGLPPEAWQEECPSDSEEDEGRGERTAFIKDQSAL
T2 sequence (A0A9J7CGZ7 27-794): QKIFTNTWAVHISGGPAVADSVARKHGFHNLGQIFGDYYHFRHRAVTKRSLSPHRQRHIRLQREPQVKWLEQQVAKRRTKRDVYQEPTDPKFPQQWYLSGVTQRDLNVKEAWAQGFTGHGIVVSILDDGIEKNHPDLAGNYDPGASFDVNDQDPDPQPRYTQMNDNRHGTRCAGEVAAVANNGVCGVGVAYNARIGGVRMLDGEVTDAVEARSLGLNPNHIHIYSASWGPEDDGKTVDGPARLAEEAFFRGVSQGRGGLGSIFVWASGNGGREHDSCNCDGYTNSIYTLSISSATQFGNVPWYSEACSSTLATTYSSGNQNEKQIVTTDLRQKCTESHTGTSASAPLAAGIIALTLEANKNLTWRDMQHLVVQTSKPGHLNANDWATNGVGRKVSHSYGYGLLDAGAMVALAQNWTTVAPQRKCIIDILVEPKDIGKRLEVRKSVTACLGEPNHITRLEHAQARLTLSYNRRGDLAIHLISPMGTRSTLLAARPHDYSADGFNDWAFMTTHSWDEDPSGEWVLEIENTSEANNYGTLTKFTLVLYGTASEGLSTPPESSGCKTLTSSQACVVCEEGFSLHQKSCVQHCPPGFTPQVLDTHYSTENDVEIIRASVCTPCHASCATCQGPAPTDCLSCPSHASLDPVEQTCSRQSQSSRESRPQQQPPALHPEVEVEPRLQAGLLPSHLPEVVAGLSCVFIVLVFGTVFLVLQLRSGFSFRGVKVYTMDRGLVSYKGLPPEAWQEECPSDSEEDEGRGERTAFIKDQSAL

Substance: Dec-RVKR-CMK
- secretion of anti-EGFR antibody (furin protease [1]): decreased secretion of anti-EGFR antibody
- expression of anti-EGFR Ab-RAKR-mB7 on cell membrane (furin protease [2]): expression of anti-EGFR Ab-RAKR-mB7 was on the cell membrane
- PCD-GB-RAKR-mB7 detected on cell membrane (furin protease [3]): few PCD-GB-RAKR-mB7 would be detected on the LEC1/PCD-GB cell membrane

From US9315815B2, “Method of high-throughput sorting of high expression cell and cells sorted therefrom” (Taipei Medical University, priority 2013, dated 2016)
